Data as given in patent US20160250208A1, “TREATING ORGAN-SPECIFIC T CELL MEDIATED AUTOIMMUNE DISEASES” (UNIVERSITY OF MASSACHUSETTS, priority 2013, published 2016).

What was measured:
14 other kinases = details: cited from earlier work
ITK = target: T1, ITK (Homo sapiens, UniProt Q08881); details: ATP-competitive; cited from earlier work
T1 sequence (Q08881 1-620): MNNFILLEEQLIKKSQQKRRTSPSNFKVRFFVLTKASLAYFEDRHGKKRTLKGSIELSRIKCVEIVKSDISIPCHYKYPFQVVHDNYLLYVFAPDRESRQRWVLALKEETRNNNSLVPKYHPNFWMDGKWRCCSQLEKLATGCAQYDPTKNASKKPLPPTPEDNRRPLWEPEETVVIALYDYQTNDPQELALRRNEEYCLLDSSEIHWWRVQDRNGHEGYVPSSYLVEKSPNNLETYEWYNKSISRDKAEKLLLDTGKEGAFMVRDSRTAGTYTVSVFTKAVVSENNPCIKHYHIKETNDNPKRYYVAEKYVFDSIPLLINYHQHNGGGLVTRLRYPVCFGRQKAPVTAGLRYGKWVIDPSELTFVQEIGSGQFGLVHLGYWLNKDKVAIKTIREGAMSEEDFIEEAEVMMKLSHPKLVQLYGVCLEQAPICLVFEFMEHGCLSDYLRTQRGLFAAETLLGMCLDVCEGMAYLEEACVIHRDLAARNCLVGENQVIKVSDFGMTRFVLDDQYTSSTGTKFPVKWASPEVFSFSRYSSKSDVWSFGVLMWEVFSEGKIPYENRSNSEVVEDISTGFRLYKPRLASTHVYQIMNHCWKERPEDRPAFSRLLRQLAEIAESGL

Fyn, IR, Lck, Btk = details: cited from earlier work
Ctla4−/− mice = experiment: Treatment of Ctla4−/− mice with ITK inhibitors (survival, T cell activation, LN size, tissue infiltration); assay type: in vivo, mouse; details: BMS509744 at 50 mg/kg, 10n at 1 mg/kg and 10 mg/kg, starting at 10 days of age; FIG. 5A
Procedure: Control mice (n=10) were injected with solvent alone. […] Data are representative of three experiments with 4-10 mice in each group per experiment.

SVEC4-10 cells = experiment: Trans-endothelial migration assay across SVEC4-10 endothelial cells; assay type: cell-based, mouse; details: DKO LN cells pre-activated with Ionomycin 2 μg/ml for 2 hours; FIG. 8F

Row | SMILES | activity against 14 other kinases (14 other kinases) | inhibition of ITK kinase activity (ITK) | inhibition of Fyn, IR, Lck, Btk (Fyn, IR, Lck, Btk) | lifespan of Ctla4−/− mice (Ctla4−/− mice) | frequency of DKO T cells migrating across the endothelium (SVEC4-10 cells)
1 | COc1cc(C)c(Sc2cnc(NC(=O)c3ccc(CNC(C)C(C)(C)C)cc3)s2)cc1C(=O)N1CCN(C(C)=O)CC1 (centres unmarked) [BMS509744] | little or no activity | potently inhibits ITK kinase activity | only at high concentrations | significantly increased their lifespan | –
2 | C[C@H](CCC(=O)O)C[C@H](C)C[C@H](C)C(=O)/C=C(\O)[C@H](C)C[C@H](C)C/C=C/[C@@H](C)[C@@H](O)[C@@H](C)[C@@H](O)C[C@@H]1CC[C@@](C)([C@H]2CC[C@@](C)([C@@H](C)O)O2)O1 [Ionomycin] | – | – | – | – | increased the frequency of DKO T cells that were able to migrate across the endothelium
